# Test results: patent US20070037883A1, “Therapeutic compositions” (priority 2003, published 2007)
# “Also recorded” adds a separate entry of the source.
# Tests used:
# [1] = system: angiotensin II-induced hypertension; assay: Angiotensin II-induced hypertension, arterial blood pressure; format: in vivo, rats
# Experimental: Measurement of arterial blood pressure: Rats are briefly anaesthetized (ketamine 80 mg/kg ip plus xylazine 10 mg/kg ip) and a saline-filled cannula is inserted in a femoral artery. The cannula is connected to a pressure transducer and a chart recorder. When arterial pressure is observed to be stable (within 5 minutes) mean arterial pressure is calculated and recorded.
# Angiotensin II-induced experimental hypertension: On Day 0, rats are briefly anaesthetized (ketamine 80 mg/kg ip plus xylazine 10 mg/kg ip) and an osmotic minipump containing either saline or suramin is implanted subcutaneously. The dose rate of suramin is 300 mg/kg per 14 days. On Day 7, rats are again anaesthetized and another minipump containing saline or angiotensin II is implanted subcutaneously. The dose rate of angiotensin II is 5 mg/kg per 7 days. On Day 14, each rat is again anaesthetized and a cannula was inserted into a femoral artery for measurement of blood pressure. Angiotensin II causes a large increase in mean arterial pressure (of approx. 60-80 mmHg) in control rats.
# On Day 0, rats were briefly anaesthetized and an osmotic minipump containing either saline or suramin was implanted subcutaneously. The dose rate of suramin was 300 mg/kg per 14 days. On Day 7, rats were again anaesthetized and another minipump containing saline or angiotensin II was implanted subcutaneously. The dose rate of angiotensin II was 5 mg/kg per 7 days. On Day 14, each rat was again anaesthetized and a cannula was inserted into a femoral artery for measurement of blood pressure. Angiotensin II caused a large increase in blood pressure in rats pretreated with saline. In contrast, the increase in blood pressure by angiotensin II was prevented by approximately 60% in rats pretreated with suramin.
# [2] = system: cerebral artery NADPH-oxidase activity; assay: NADPH-induced superoxide production by the rat basilar artery in vitro after subarachnoid haemorrhage, chronic in vivo treatment; set-up: species or system Sprague-Dawley rats; conditions: FIG. 13
# Experimental: Subarachnoid hemorrhage: On Day 0, rats are briefly anaesthetized (pentobarbital 50 mg/kg ip) and an osmotic minipump containing either saline or suramin is implanted subcutaneously. The dose rate of suramin is 300 mg/kg per 7 days. On Day 5, rats are again anaesthetized and 0.3 ml of blood is withdrawn from a femoral artery and injected into the cerebrospinal fluid around the ventral surface of the brain via the cisterna magna. In some control rats, saline is injected into the cerebrospinal fluid instead of arterial blood. The rat is allowed to recover for a further 2 days, and is then again anaesthetized on Day 7 for study.
# On Day 0, rats were briefly anaesthetized and an osmotic minipump containing either saline or suramin was implanted subcutaneously. The dose rate of suramin was 30 or 300 mg/kg per 7 days. On Day 5, rats were again anaesthetized and 0.3 ml of blood was withdrawn from a femoral artery and injected into the cerebrospinal fluid around the ventral surface of the brain via the cisterna magna. In some rats, saline was injected into the cerebrospinal fluid instead of arterial blood. […]
# The brain was removed and the basilar artery was isolated and then incubated with 5 micromolar lucigenin, 100 micromolar NADPH and 3 millimolar diethyldithiocarbamate. Superoxide production was measured using lucigenin-enhanced chemiluminescence.
# [3] = system: atherosclerotic lesion formation in ApoE−/− mice; assay: Atherosclerotic lesion formation in aortas of fat-fed ApoE mutant mice; format: in vivo, mouse; conditions: high-fat diet, weekly s.c. suramin for 4 months, vs saline
# Experimental: ApoE^−/− mice: Whole aortas are isolated and cut open via an incision along the ventral wall [Jiang et al., 2001, supra]. Tissues are rinsed with 60% v/v isopropanol and stained with oil red O (0.5%) for 10 minutes at room temperature. After staining, tissues are rinsed in 60% v/v sopropanol and preserved in 10% v/v neutral buffered formalin. The en face surface of the aorta is then imaged and lesion area (red-stained) quantified using MCID imaging analysis software.
# Twelve-week-old ApoE mutant mice were fed a high fat diet for a further 4 months. During this 4 month period, the mice were given weekly subcutaneous injections of saline or suramin. Specifically, mice were initially dosed with two weekly injections of 300 mg/kg suramin. Four weeks later a 25 mg/kg dose of suramin was administered, and then weekly doses of 15 mg/kg suramin were administered for a further 11 weeks. At the end of the treatment period, mice were killed by anaesthetic overdose and the aorta was removed, cleaned of adherent fat on the adventitial surface, and then cut longitudinally along the entire length. […] The en face surface of the aorta was then imaged and lesion area (red-stained) quantified and expressed as a percent of total luminal surface area for each of: total aorta, thoracic aorta, abdominal aorta, and aortic arch. […]
# [4] = target: T1, gp91phox-containing NADPH-oxidase in the mouse macrophage cell line J774 (Mus musculus, UniProt Q61093); assay: NADPH oxidase activity in intact J774 mouse macrophages; format: cell-based; conditions: FIG. 2b
# T1 construct: endogenous in cells; host or cells: J774 mouse macrophage cell line (intact cells)
# T1 sequence (Q61093 2-570 limits assumed): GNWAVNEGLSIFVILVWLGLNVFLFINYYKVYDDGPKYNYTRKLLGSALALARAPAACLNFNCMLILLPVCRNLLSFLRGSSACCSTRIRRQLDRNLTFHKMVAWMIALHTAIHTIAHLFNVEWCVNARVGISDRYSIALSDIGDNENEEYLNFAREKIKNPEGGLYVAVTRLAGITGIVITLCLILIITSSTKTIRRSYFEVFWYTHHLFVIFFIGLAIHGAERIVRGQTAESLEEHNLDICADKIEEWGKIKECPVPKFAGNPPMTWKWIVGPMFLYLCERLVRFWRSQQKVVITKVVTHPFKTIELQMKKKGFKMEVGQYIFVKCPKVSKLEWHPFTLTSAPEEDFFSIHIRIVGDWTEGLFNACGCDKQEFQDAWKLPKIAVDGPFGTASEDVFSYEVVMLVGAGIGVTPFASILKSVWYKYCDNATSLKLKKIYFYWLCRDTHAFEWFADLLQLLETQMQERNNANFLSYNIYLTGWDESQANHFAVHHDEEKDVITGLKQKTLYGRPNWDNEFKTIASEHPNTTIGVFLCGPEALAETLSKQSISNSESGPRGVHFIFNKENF
# T1 sequence (Q61462 1-192 partner): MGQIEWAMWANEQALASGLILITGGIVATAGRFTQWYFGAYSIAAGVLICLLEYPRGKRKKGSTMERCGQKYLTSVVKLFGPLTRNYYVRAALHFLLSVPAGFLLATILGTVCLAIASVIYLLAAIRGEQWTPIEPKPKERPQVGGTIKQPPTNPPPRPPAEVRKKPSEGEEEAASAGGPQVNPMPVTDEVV
smiles,measurement,setting,value
Cc1ccc(C(=O)Nc2ccc(S(=O)(=O)O)c3cc(S(=O)(=O)O)cc(S(=O)(=O)O)c23)cc1NC(=O)c1cccc(NC(=O)Nc2cccc(C(=O)Nc3cc(C(=O)Nc4ccc(S(=O)(=O)O)c5cc(S(=O)(=O)O)cc(S(=O)(=O)O)c45)ccc3C)c2)c1 [suramin],mean arterial blood pressure of control rats,"[1]; suramin 150 mg/kg s.c. per week for 2 weeks, no angiotensin II, ketamine-xylazine anaesthesia, FIG. 15",no effect
same,prevention of the increase in blood pressure by angiotensin II,"[1]; suramin 300 mg/kg per 14 days, angiotensin II 5 mg/kg per 7 days, Day 14",approximately 60%
same,increase in arterial pressure during angiotensin II administration (in words),"[1]; suramin 1 week prior to and during 1 week of angiotensin II 5 mg/kg s.c., FIG. 15",smaller increase
same,"NADPH (100 μM)-driven superoxide production by isolated basilar artery, control rats","[2]; suramin 30-300 mg/kg over 7 days, control rats without SAH",no effect
same,NADPH-driven superoxide production by basilar artery 2 days after SAH,"[2]; suramin 30 or 300 mg/kg per 7 days s.c. minipump, rats subjected to SAH",not different from levels measured in non-operated control rats; also recorded: prevents the increase
same,"atherosclerotic lesion area: total aorta, thoracic aorta, abdominal aorta",[3]; FIG. 12,markedly smaller lesion areas; also recorded: smaller lesion area
same,lesion size in the aortic arch,[3]; FIG. 12b,no effect
same,effect on gp91phox-containing NADPH-oxidase in J774 macrophages / phagocytic cells,[4],does not inhibit; also recorded: ineffective
same,effect on gp91phox-containing NADPH-oxidase in J774 macrophages / phagocytic cells,[4]; listed as Suramin,little effect
